Assay results taken from patent publication US8802895B2, “Amide derivatives of benzene-sulfonanilide, pharmaceutical composition thereof and method for cancer treatment using the same” (Cleveland State University, priority 2010, dated 2014).

Assays:
Type in all cases: cell-based
[1] = system: OVCAR-4; assay: NCIDTP 60 cancer cell lines screening, Ovarian Cancer panel
[2] = system: cells; assay: Primary mechanism study: cell viability with compound #10 and 2-APB (FIG. 10); details: with and without 2-APB; cell viability after 48 hours
Description: For the experiment, 2-APB was first added. […] The control cells were treated with same amount of DMSO to carry the drugs. The cell viability was evaluated after 48 hours.

[3] = system: 786-0; assay: NCIDTP 60 cancer cell lines screening, Renal Cancer panel
[4] = system: DU-145; assay: NCIDTP 60 cancer cell lines screening, Prostate Cancer panel
[5] = system: MDA-MB-435; assay: NCIDTP 60 cancer cell lines screening, Melanoma panel
[6] = system: NCI-H226; assay: NCIDTP 60 cancer cell lines screening, Non-Small Cell Lung Cancer panel
[7] = system: SN12C; assay: NCIDTP 60 cancer cell lines screening, Renal Cancer panel
[8] = system: MCF7; assay: NCIDTP 60 cancer cell lines screening, Breast Cancer panel
[9] = system: PC-3; assay: NCIDTP 60 cancer cell lines screening, Prostate Cancer panel
[10] = system: LOX IMVI; assay: NCIDTP 60 cancer cell lines screening, Melanoma panel

Cc1ccc(C)c(COc2cc(NC(=O)c3ccc4c(c3)OCO4)ccc2N(C)S(C)(=O)=O)c1 [Compound #10, Benzo[1,3]dioxole-5-carboxylic acid [3-(2,5-dimethyl-benzyloxy)-4-(methanesulfonyl-methyl-amino)-phenyl]-amide]
CC50 ([1]; Homo sapiens, OVCAR-4, read-out: LC50): > 100000 nM | TGI ([1]; OVCAR-4): >1.00E−4 Molar | Percent Growth ([1]; OVCAR-4, Log10 Concentration −4.0 Molar): 56% | Percent Growth ([1]; OVCAR-4, Log10 Concentration −5.0 Molar): 47% | Percent Growth ([1]; OVCAR-4, Log10 Concentration −6.0 Molar): 54% | Percent Growth ([1]; OVCAR-4, Log10 Concentration −7.0 Molar): 90% | Percent Growth ([1]; OVCAR-4, Log10 Concentration −8.0 Molar): 87% | cell death / cell viability, relation with calcium signal [2]: induces cell death that is at least partially related with calcium signal in the cells | TGI ([3]; 786-0): 1.11E−6 Molar | Percent Growth ([3]; 786-0, Log10 Concentration −4.0 Molar): −14% | Percent Growth ([3]; 786-0, Log10 Concentration −5.0 Molar): −22% | Percent Growth ([3]; 786-0, Log10 Concentration −6.0 Molar): 1% | Percent Growth ([3]; 786-0, Log10 Concentration −7.0 Molar): 69% | Percent Growth ([3]; 786-0, Log10 Concentration −8.0 Molar): 91% | GI50 ([3]; Homo sapiens, 786-0): 191 nM | CC50 ([3]; Homo sapiens, 786-0, read-out: LC50): > 100000 nM | TGI ([4]; DU-145): 4.57E−7 Molar | Percent Growth ([4]; DU-145, Log10 Concentration −4.0 Molar): −28% | Percent Growth ([4]; DU-145, Log10 Concentration −5.0 Molar): −39% | Percent Growth ([4]; DU-145, Log10 Concentration −6.0 Molar): −37% | Percent Growth ([4]; DU-145, Log10 Concentration −7.0 Molar): 72% | Percent Growth ([4]; DU-145, Log10 Concentration −8.0 Molar): 96% | GI50 ([4]; Homo sapiens, DU-145): 159 nM | CC50 ([4]; Homo sapiens, DU-145, read-out: LC50): > 100000 nM | GI50 ([5]; Homo sapiens, MDA-MB-435): 28.5 nM | CC50 ([5]; Homo sapiens, MDA-MB-435, read-out: LC50): > 100000 nM | TGI ([5]; MDA-MB-435): 9.14E−8 Molar | Percent Growth ([5]; MDA-MB-435, Log10 Concentration −4.0 Molar): −17% | Percent Growth ([5]; MDA-MB-435, Log10 Concentration −5.0 Molar): −28% | Percent Growth ([5]; MDA-MB-435, Log10 Concentration −6.0 Molar): −30% | Percent Growth ([5]; MDA-MB-435, Log10 Concentration −7.0 Molar): −4% | Percent Growth ([5]; MDA-MB-435, Log10 Concentration −8.0 Molar): 95% | GI50 ([6]; Homo sapiens, NCI-H226): 686 nM | CC50 ([6]; Homo sapiens, NCI-H226, read-out: LC50): > 100000 nM | TGI ([6]; NCI-H226): >1.00E−4 Molar | Percent Growth ([6]; NCI-H226, Log10 Concentration −4.0 Molar): 16% | Percent Growth ([6]; NCI-H226, Log10 Concentration −5.0 Molar): 20% | Percent Growth ([6]; NCI-H226, Log10 Concentration −6.0 Molar): 42% | Percent Growth ([6]; NCI-H226, Log10 Concentration −7.0 Molar): 93% | Percent Growth ([6]; NCI-H226, Log10 Concentration −8.0 Molar): 87% | TGI [7]: >1.00E−4 Molar | GI50 ([7]; Homo sapiens): 472 nM | CC50 ([7]; Homo sapiens, read-out: LC50): > 100000 nM | Percent Growth ([7]; Log10 Concentration −4.0 Molar): 23% | Percent Growth ([7]; Log10 Concentration −5.0 Molar): 22% | Percent Growth ([7]; Log10 Concentration −6.0 Molar): 30% | Percent Growth ([7]; Log10 Concentration −7.0 Molar): 91% | Percent Growth ([7]; Log10 Concentration −8.0 Molar): 96% | GI50 ([8]; Homo sapiens, MCF7): 120 nM | CC50 ([8]; Homo sapiens, MCF7, read-out: LC50): > 100000 nM | TGI ([8]; MCF7): >1.00E−4 Molar | Percent Growth ([8]; MCF7, Log10 Concentration −4.0 Molar): 7% | Percent Growth ([8]; MCF7, Log10 Concentration −5.0 Molar): 10% | Percent Growth ([8]; MCF7, Log10 Concentration −6.0 Molar): 16% | Percent Growth ([8]; MCF7, Log10 Concentration −7.0 Molar): 53% | Percent Growth ([8]; MCF7, Log10 Concentration −8.0 Molar): 92% | GI50 ([9]; Homo sapiens, PC-3): 67.7 nM | CC50 ([9]; Homo sapiens, PC-3, read-out: LC50): > 100000 nM | TGI ([9]; PC-3): >1.00E−4 Molar | Percent Growth ([9]; PC-3, Log10 Concentration −4.0 Molar): 21% | Percent Growth ([9]; PC-3, Log10 Concentration −5.0 Molar): 20% | Percent Growth ([9]; PC-3, Log10 Concentration −6.0 Molar): 21% | Percent Growth ([9]; PC-3, Log10 Concentration −7.0 Molar): 41% | Percent Growth ([9]; PC-3, Log10 Concentration −8.0 Molar): 92% | TGI [10]: >1.00E−4 Molar | GI50 ([10]; Homo sapiens): 66.6 nM | CC50 ([10]; Homo sapiens, read-out: LC50): > 100000 nM | Percent Growth ([10]; Log10 Concentration −4.0 Molar): 26% | Percent Growth ([10]; Log10 Concentration −5.0 Molar): 21% | Percent Growth ([10]; Log10 Concentration −6.0 Molar): 13% | Percent Growth ([10]; Log10 Concentration −7.0 Molar): 41% | Percent Growth ([10]; Log10 Concentration −8.0 Molar): 91%
